Values joined by “and” are separate entries in the source; they are usually repeats but may differ in a detail not shown here. Identical values can stand only once. “Also recorded” adds a separate entry of the source. Like-named read-outs stand apart in the source and are kept apart here.
Experiments:
CYP2C9 = CYP2C9 (Homo sapiens, UniProt P11712); assay: Time-dependent CYP inhibition: CYP2C9; format: in vitro ADME; settings: I-57 concentrations of up to 100 μM
IKZF2 [1] = target: T1, IKZF2 (Homo sapiens, UniProt Q96SW2+Q9UKS7); assay: IKZF2 degradation in vitro (FIG. 1); format: cell-based; set-up: prolabel (ProLabel enzyme-fragment tag); expressed in transfected cells; host or cells: HEK293T
T1 sequence (Q9UKS7 whole entry, the tested form may be a part): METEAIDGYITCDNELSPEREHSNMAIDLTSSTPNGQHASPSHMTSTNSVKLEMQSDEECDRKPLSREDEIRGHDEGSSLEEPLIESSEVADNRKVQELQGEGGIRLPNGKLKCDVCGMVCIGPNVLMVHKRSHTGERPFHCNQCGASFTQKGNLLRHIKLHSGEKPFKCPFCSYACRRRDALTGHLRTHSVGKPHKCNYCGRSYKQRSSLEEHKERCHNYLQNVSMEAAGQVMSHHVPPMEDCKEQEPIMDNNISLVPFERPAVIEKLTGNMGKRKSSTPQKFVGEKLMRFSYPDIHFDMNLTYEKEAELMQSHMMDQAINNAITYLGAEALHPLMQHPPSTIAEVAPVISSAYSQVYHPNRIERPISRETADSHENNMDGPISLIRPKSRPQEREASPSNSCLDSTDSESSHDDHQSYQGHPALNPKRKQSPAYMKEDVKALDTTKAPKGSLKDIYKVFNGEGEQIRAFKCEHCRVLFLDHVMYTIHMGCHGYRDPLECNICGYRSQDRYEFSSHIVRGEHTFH
T1 sequence (Q96SW2 whole entry, the tested form may be a part): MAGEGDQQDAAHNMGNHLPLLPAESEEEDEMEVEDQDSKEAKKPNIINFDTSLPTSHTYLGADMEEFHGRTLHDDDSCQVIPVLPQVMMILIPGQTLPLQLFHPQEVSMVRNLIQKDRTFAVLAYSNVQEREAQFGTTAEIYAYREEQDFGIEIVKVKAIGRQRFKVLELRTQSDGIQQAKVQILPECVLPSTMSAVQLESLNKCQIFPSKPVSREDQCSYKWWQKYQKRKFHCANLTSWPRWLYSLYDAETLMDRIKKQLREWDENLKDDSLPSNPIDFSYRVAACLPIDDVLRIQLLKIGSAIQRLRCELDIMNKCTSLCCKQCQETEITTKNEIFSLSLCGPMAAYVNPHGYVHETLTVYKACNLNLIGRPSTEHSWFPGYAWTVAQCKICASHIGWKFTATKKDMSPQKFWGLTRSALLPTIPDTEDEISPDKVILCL
T1 sequence (Q16531 whole entry partner, the tested form may be a part): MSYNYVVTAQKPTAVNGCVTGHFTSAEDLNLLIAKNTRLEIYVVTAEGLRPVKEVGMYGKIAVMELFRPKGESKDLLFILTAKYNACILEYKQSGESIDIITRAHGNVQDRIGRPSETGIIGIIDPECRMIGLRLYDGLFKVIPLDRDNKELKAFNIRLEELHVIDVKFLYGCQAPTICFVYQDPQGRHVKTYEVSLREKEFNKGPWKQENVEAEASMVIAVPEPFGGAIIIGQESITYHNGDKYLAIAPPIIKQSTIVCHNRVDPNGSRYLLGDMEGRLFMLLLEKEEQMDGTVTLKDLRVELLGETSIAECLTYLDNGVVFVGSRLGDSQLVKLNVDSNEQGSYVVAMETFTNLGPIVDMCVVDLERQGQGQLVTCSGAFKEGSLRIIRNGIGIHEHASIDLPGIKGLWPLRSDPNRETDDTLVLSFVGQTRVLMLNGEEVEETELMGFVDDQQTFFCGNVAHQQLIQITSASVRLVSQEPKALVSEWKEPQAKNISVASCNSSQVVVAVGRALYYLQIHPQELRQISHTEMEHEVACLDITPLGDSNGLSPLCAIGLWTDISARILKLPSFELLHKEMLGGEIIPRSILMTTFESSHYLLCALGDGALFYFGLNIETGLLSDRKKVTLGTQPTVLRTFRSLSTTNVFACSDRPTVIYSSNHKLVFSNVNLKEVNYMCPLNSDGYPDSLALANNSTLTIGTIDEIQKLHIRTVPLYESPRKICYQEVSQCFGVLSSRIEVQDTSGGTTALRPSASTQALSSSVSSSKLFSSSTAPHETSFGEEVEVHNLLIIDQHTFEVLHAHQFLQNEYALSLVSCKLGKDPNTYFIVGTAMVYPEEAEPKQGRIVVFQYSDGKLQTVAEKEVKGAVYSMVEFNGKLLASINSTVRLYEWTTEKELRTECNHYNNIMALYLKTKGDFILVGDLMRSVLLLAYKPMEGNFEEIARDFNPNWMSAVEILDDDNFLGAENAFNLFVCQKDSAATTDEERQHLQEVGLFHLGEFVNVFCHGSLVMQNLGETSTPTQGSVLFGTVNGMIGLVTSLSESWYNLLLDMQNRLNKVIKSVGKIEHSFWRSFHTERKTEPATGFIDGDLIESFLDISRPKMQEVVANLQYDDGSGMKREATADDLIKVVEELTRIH
Source text: (§1) Although the specific transcriptional targets of IKZF2 remain to be defined, IKZF2 binds to and represses transcription from the IL-2 promoter region (Baine 2013). […] Finally, an in vitro assay recapitulating hallmarks of T cell dysfunction/exhaustion, by sequential TCR stimulation of isolated primary human T cells, was used to test the hypothesis that […] would rescue the exhausted phenotype and enhance Teff cell activity. […] In addition to IKZF1, other known cereblon substrates including translation termination factor G1 to S phase transition 1 (GSPT1) are not degraded by I-57 (FIG. 1).

P-gp = P-gp (Homo sapiens, UniProt P08183); assay: P-gp substrate assessment; format: in vitro ADME
Sequence of P-gp (P08183 whole entry, the tested form may be a part): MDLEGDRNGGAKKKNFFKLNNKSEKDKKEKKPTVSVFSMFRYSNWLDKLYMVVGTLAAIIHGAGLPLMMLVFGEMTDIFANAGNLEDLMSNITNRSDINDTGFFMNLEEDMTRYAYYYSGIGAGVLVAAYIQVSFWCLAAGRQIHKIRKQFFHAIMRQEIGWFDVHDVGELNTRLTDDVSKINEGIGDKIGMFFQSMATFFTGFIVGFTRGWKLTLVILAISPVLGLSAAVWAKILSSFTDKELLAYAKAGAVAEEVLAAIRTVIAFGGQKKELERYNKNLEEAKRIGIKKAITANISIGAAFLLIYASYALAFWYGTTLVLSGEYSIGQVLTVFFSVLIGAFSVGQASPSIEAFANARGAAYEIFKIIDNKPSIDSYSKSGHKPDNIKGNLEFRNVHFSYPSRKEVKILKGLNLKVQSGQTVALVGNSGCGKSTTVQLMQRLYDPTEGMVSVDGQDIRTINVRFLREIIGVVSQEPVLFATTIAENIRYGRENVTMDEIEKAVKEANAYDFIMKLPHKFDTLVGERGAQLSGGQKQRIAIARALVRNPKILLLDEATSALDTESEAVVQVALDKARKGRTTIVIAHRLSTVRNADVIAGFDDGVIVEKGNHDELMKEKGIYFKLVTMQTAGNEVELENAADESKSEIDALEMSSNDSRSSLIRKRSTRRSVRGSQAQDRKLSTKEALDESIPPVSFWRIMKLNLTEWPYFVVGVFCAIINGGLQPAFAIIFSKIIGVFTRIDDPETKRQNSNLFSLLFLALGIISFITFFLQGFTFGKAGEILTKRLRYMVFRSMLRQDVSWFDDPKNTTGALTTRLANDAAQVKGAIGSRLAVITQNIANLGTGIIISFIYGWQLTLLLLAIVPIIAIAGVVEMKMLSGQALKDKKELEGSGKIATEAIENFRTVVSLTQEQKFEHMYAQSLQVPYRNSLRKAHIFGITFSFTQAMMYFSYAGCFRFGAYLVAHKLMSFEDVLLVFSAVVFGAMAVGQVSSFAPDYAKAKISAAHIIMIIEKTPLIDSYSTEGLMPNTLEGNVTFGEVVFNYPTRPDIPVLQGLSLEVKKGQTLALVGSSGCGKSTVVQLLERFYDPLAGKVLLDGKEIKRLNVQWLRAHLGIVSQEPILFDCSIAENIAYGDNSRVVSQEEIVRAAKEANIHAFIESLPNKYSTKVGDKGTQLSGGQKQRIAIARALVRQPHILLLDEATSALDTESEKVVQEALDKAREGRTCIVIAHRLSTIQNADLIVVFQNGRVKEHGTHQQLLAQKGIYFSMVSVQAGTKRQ

IKZF2 [2] = target: T1, IKZF2; assay: Degradation of prolabel-tagged IKZF2 in HEK293T cells (FIG. 1); format: cell-based; set-up: prolabel (ProLabel enzyme-fragment tag); expressed in transfected cells; host or cells: HEK293T; settings: HEK293T cells overexpressing prolabel-tagged target proteins, various concentrations
Source text: FIG. 1. is a graph showing the selectivity of Compound I-57 for the degradation of IKZF2 over the other IKAROS family members, IKZF1, IKZF4, and GSPT1 at various concentrations in HEK293T cells overexpressing prolabel-tagged target proteins.

plasma protein [3] = assay: Plasma protein binding in vitro, rat; format: in vitro ADME
Source text: (§2) The binding to plasma protein of I-57 in vitro was moderate in all species, with an observed difference between rodents (73% in mouse, 76% in rat) and non-rodents (52% in dog and monkey, 54% in human). Blood-to-plasma ratios were in the range of 0.7-1.8 (human 1.1-1.3). […] Based on results with non-radiolabeled I-57 in the dog, a significant amount of unchanged I-57 was renally eliminated (˜20% of dose).

IKZF2 [4] = target: T1, IKZF2; assay: Degradation of IKZF2 in primary PBMCs, human (FIG. 3); format: cell-based; set-up: endogenous in cells; host or cells: primary human PBMCs
Source text: FIG. 3. is a bar graph showing the degradation of IKZF2 in primary PBMCs obtained from rabbit, dog, pig, cynomolgus monkey and human, and in primary splenocytes of mouse and rat and treated with Compound I-57.

[5] = Repeated daily oral dose PK in cynomolgus monkey; format: in vivo; settings: unbound; for Cmax / AUC(0-t): plasma, po; for AUC(0-t): read-out: AUC0-24
Procedure: The PK/PD relationship of I-57 was further examined in cynomolgus monkeys after repeated daily oral doses of 0.1 and 3 mg/kg. In this study, a cohort of animals were initially immunized with an antigen-adjuvant mixture (KLH/Squalene). The experiment was designed to assess the effect of I-57 exposure, and the resulting IKZF2 degradation, on immune response during immunization to test the hypothesis that IKZF2 degradation would result in increased proliferation of stimulated T-cells. In the experiment, daily I-57 oral treatment was initiated 5 days after immunization. An immunization booster dose was administered on day 15. I-57 plasma concentration and IKZF2 expression (as determined by flow cytometry) in FOXP3+ T cells from PBMCs were determined (FIG. 9A and FIG. 9B).

CYP1A2 = CYP1A2 (Homo sapiens, UniProt P05177); assay: CYP inhibition: CYP1A2; format: in vitro ADME; settings: I-57 concentrations of up to 100 μM
Sequence of CYP1A2 (P05177 whole entry): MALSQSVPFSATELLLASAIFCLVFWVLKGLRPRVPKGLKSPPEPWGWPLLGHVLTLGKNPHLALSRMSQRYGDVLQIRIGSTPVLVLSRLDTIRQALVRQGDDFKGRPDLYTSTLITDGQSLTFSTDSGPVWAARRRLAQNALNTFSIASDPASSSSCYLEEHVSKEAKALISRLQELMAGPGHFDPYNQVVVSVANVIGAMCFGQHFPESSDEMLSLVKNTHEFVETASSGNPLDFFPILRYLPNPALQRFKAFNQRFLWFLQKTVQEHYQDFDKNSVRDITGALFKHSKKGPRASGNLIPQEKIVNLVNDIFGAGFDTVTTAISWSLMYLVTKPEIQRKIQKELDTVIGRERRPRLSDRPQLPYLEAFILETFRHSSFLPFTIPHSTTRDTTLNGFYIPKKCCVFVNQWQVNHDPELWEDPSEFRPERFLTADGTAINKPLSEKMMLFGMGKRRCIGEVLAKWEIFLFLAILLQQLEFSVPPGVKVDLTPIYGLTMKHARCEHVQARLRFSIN

IKZF2 [6] = assay: IKZF2 degradation in primary cynomolgus monkey PBMCs; format: cell-based; settings: primary monkey PBMCs in vitro
Source text: as §1
I-57 mediated degradation of IKZF2 was assessed in primary PBMCs obtained from rabbit, dog, pig, cynomolgus monkey, and human, and in primary splenocytes of mouse and rat. […] Species-specificity due to species specific alteration CRBN primary structure have previously been described with other compounds known to interact with the CRBN ubiquitin ligase complex to elicit protein specific degradation (Krönke et al, 2015).

primary human Tregs = assay: Suppression of Teff proliferation by in vitro expanded primary human Tregs; format: cell-based
[7] = tested on: IFNγ production in Teff cells; assay: IFNγ production in Teff cells (FIG. 2D); format: cell-based; settings: 2.5 nM, 25 nM and 2.5 μM vs DMSO
IKZF4 = target: T2, IKZF4 (Homo sapiens, UniProt Q96SW2+Q9H2S9); assay: IKZF4 degradation in vitro (FIG. 1); format: cell-based; settings: relative to IKZF2
T2 construct: prolabel (ProLabel enzyme-fragment tag); expressed in transfected cells; host or cells: HEK293T
T2 sequence (Q9H2S9 whole entry, the tested form may be a part): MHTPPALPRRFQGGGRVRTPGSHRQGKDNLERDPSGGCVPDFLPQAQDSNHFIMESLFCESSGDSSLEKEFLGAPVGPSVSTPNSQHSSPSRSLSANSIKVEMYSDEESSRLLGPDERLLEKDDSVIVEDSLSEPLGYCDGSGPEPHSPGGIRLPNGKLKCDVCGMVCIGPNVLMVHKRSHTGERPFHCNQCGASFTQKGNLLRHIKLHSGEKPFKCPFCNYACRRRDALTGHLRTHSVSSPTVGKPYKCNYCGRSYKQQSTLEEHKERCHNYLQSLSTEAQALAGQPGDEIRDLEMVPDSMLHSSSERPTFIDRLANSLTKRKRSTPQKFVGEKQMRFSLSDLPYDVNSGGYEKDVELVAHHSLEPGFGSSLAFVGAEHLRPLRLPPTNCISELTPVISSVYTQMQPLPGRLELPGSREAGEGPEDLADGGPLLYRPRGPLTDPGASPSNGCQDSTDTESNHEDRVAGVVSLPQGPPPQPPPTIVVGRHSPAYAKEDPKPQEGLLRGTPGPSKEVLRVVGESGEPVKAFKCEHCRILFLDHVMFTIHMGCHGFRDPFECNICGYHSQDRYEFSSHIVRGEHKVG
T2 sequence (Q96SW2 whole entry, the tested form may be a part): as the sequence (Q96SW2 whole entry, the tested form may be a part) above
T2 sequence (Q16531 whole entry partner, the tested form may be a part): as the sequence (Q16531 whole entry partner, the tested form may be a part) above
Source text: as §1

[8] = In vitro metabolism in liver microsomes and hepatocytes across species; format: in vitro ADME
Procedure: In vivo in the dog, very minor amounts of the N-dealkylation product and products derived from hydrolysis of the glutarimide moiety were detected in plasma. While the contribution of CYP-mediated oxidative metabolism to systemic clearance is unknown, a preliminary assessment of the enzymes involved was conducted using human recombinant CYPs in vitro.

CYP2C19 = CYP2C19 (Homo sapiens, UniProt P33261); assay: Time-dependent CYP inhibition: CYP2C19; format: in vitro ADME; settings: I-57 concentrations of up to 100 μM
plasma protein [9] = assay: Plasma protein binding in vitro, dog; format: in vitro ADME
Source text: as §2

[10] = tested on: IL-2 mRNA and soluble protein in Jurkat cells; assay: IL-2 expression in TCR-stimulated Jurkat cells; format: cell-based; settings: Homo sapiens; Jurkat cells upon TCR stimulation
Source text: as §1

[11] = 0.1 mg/kg/day, Day 5, Group 2 (only I-57), 0.1 mg/kg/day oral
[12] = 0.1 mg/kg/day, Day 5, Group 4 (I-57 + KLH + adjuvant), 0.1 mg/kg/day oral
[13] = 0.1 mg/kg/day, Day 29, Group 2 (only I-57), 0.1 mg/kg/day oral
[14] = 0.1 mg/kg/day, Day 29, Group 4 (I-57 + KLH + adjuvant), 0.1 mg/kg/day oral
[15] = 3 mg/kg/day, Day 5, Group 5 (I-57 + KLH + adjuvant), 3 mg/kg/day oral
[16] = 3 mg/kg/day, Day 29, Group 5 (I-57 + KLH + adjuvant), 3 mg/kg/day oral
[17] = Day 5, Group 2 (only I-57), 0.1 mg/kg/day oral
[18] = Day 5, Group 4 (I-57 + KLH + adjuvant), 0.1 mg/kg/day oral
[19] = Day 5, Group 5 (I-57 + KLH + adjuvant), 3 mg/kg/day oral
[20] = Day 29, Group 2 (only I-57), 0.1 mg/kg/day oral
[21] = Day 29, Group 4 (I-57 + KLH + adjuvant), 0.1 mg/kg/day oral
[22] = Day 29, Group 5 (I-57 + KLH + adjuvant), 3 mg/kg/day oral

Sequence of CYP2C9 (P11712 whole entry, the tested form may be a part): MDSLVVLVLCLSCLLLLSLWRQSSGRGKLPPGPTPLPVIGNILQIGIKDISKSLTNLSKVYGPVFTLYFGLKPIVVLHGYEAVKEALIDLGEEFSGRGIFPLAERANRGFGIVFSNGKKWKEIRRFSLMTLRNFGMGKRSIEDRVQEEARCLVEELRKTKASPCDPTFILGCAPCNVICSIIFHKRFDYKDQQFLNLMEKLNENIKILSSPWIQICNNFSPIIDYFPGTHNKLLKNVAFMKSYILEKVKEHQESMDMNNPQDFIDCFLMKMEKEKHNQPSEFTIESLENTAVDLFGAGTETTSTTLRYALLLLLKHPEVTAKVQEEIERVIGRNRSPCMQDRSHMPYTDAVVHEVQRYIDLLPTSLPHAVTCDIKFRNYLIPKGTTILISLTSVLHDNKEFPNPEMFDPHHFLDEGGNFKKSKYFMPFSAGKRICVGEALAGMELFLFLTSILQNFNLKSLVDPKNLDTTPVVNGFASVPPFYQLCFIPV

O=C1CCC(N2Cc3cc(C4CCN(Cc5ccccc5)CC4)ccc3C2=O)C(=O)N1 (stereo not shown) [Compound I-57, 3-(5-(1-benzylpiperidin-4-yl)-1-oxoisoindolin-2-yl)piperidine-2,6-dione]
time-dependent inhibition of CYP2C9 (CYP2C9): no apparent time-dependent inhibition | degradation of IKZF2 (IKZF2 [1]): potent and selective degrader of IKZF2 | P-gp substrate status (P-gp): P-gp substrate | degradation of IKZF2 and selectivity over IKZF1, IKZF4 and GSPT1 (IKZF2 [2]): potent and specific degrader of IKZF2 | binding to plasma protein (plasma protein [3]): 76% | degradation of IKZF2 (IKZF2 [4]): degradation was observed | Cmax [5, 11]: 7.1 ng/mL | AUC(0-t) [5, 11]: 56.8 ng·h/mL | Cmax [5, 12]: 11 ng/mL | AUC(0-t) [5, 12]: 63.5 ng·h/mL | Cmax [5, 13]: 13.1 ng/mL | AUC(0-t) [5, 13]: 78.1 ng·h/mL | Cmax [5, 14]: 18 ng/mL | AUC(0-t) [5, 14]: 96.4 ng·h/mL | Cmax [5, 15]: 523 ng/mL | AUC(0-t) [5, 15]: 2840 ng·h/mL | Cmax [5, 16]: 504 ng/mL | AUC(0-t) [5, 16]: 3460 ng·h/mL | AUC0-24/D [5, 17]: 567 (ng · h/mL)/(mg/kg) | Cmax/D [5, 17]: 71.0 (ng/mL)/(mg/kg) | AUC0-24/D [5, 18]: 634 (ng · h/mL)/(mg/kg) | Cmax/D [5, 18]: 110 (ng/mL)/(mg/kg) | AUC0-24/D [5, 19]: 946 (ng · h/mL)/(mg/kg) | Cmax/D [5, 19]: 175 (ng/mL)/(mg/kg) | AUC0-24/D [5, 20]: 782 (ng · h/mL)/(mg/kg) | Cmax/D [5, 20]: 131 (ng/mL)/(mg/kg) | AUC0-24/D [5, 21]: 965 (ng · h/mL)/(mg/kg) | Cmax/D [5, 21]: 180 (ng/mL)/(mg/kg) | AUC0-24/D [5, 22]: 1150 (ng · h/mL)/(mg/kg) | Cmax/D [5, 22]: 169 (ng/mL)/(mg/kg) | inhibition of CYP1A2 (CYP1A2): very little and no inhibition | degradation of IKZF2 (IKZF2 [6]): potent degradation; also recorded: Degradation was observed | IKZF2 protein level in Treg cells (primary human Tregs; primary human Tregs expanded in vitro): reduced proportionally to the I-57 dose | capacity of Tregs to suppress Teff proliferation (primary human Tregs; primary human Tregs expanded in vitro in the presence of I-57): reduced capacity to suppress Teff proliferation | IFNγ production by IKZF2+ cells [7]: concomitant increase in IFNγ production | degradation of IKZF4 (IKZF4): less potency than IKZF2 | metabolic stability [8]: very stable and no appreciable metabolic turnover was observed | time-dependent inhibition of CYP2C19 (CYP2C19): no apparent time-dependent inhibition | binding to plasma protein (plasma protein [9]): 52% | AC50 [10]: ~4 nM and ~0.0017 µg/mL

Reference: patent publication US20230321067A1, “DOSING REGIMEN COMPRISING 3-(1-OXOISOINDOLIN-2-YL)PIPERIDINE-2,6-DIONE DERIVATIVES” (Novartis AG, priority 2020, published 2023)
